Laboratory results from patent publication US6433009B1, “Sulfonyl urea derivatives and their use in the control of interleukin-1 activity” (Pfizer Inc, priority 1997, dated 2002).

Structure (SMILES): O=C(Nc1c2c(cc3c1CCC3)CCC2)NS(=O)(=O)c1ccc2[nH]cnc2c1 [Example 127, 1-(1H-Benzoimidazole-5-sulfonyl)-3-(1,2,3,5,6,7-hexahydro-s-indacen-4-yl)-urea]
- melting point: 239 °C (dec.)

Structure (SMILES): CC(=O)c1cccc(S(=O)(=O)NC(=O)Nc2c(C(C)C)cccc2C(C)C)c1 [Example 56, 1-(3-Acetyl-benzenesulfonyl)-3-(2,6-diisopropyl-phenyl)-urea]
- melting point: 151.6 to 153.5 °C
